Legend:
[1] = test system: STIB 719/ILRAD 560 T. vivax (drug sensitive) strain; test: Ex vivo Alamar Blue 48 hrs drug sensitivity assay for T. vivax; format: cell-based; settings: Trypanosoma vivax, STIB719; STIB 719/ILRAD 560 T. vivax bloodstream form, ex vivo, Alamar Blue, 48 hrs; read-out: T. vivax Act.
Protocol: Ex vivo Alamar Blue48 hrs drug sensitivity assay for T. vivax. Compounds were tested ex vivo for chemotherapeutic efficacy against the STIB 719/ILRAD 560 T. vivax (drug sensitive) strain, using an Alamar Blue assay. Test compounds were prepared as 10 mg/mL DMSO stocks for each assay run. Compounds were assayed in at least three separate, independent test runs and an 11-point dilution curve was used to determine the IC50 values. Bloodstream form trypanosomes were propagated and harvested from a highly parasitaemic mouse (via cardiac puncture) and were incubated with test compounds for 45 hrs at 37° C. in a humidified atmosphere containing 5% CO2, supported in HMI media containing 20% bovine serum. Thereafter, 10 μL of Resazurin dye (12.5 mg in 100 mL of phosphate buffered saline, Sigma-Aldrich, Buchs, Switzerland) were added for an additional 3 hrs. Plates were then read using a fluorescent plate reader (Spectramax, Gemini XS, Bucher Biotec, Basel, Switzerland) using an excitation wavelength of 536 nm and an emission wavelength of 588 nm. Data points were averaged to generate sigmoidal dose-response curves and IC50 values were determined using Softmax Pro 5.2 software.

[2] = test system: IL3000 T. congolense (drug sensitive) strain; test: In vitro Alamar Blue 72 hrs drug sensitivity assay for T. congolense; format: cell-based; settings: Trypanosoma congolense, IL3000 T. congolense bloodstream form, read-out: T. congo Act.
Protocol: In Vitro Alamar Blue 72 Hrs Drug Sensitivity Assay for T. Congolense. Compounds were tested in vitro for chemotherapeutic efficacy against the IL3000 T. congolense (drug sensitive) strain using an Alamar Blue assay. Test compounds were prepared as 10 mg/mL DMSO stocks for each assay run. Compounds were assayed in at least three separate, independent test runs and an 11-point dilution curve was used to determine the IC50 values. Bloodstream form trypanosomes were supported in HMI media containing 20% bovine serum and were incubated with test compounds for 69 hrs at 34° C. in a humidified atmosphere containing 5% CO2. Thereafter, 10 μL of Resazurin dye (12.5 mg in 100 mL of phosphate buffered saline, Sigma-Aldrich, Buchs, Switzerland) were added for an additional 3 hrs. Plates were then read using a fluorescent plate reader (Spectramax, Gemini XS, Bucher Biotec, Basel, Switzerland) using an excitation wavelength of 536 nm and an emission wavelength of 588 nm. Data points were averaged to generate sigmoidal dose-response curves and IC50 values were determined using Softmax Pro 5.2 software.

Row | Structure (SMILES) | IC50 [1] [nM] | IC50 [2] [nM]
1 | CC1(Nc2ncc3nc(Nc4cncc(Cl)c4)n([C@H]4CC[C@@H](CN)CC4)c3n2)CCOCC1 [A-33, 9-((1s,4s)-4-(aminomethyl)cyclohexyl)-N8-(5-chloropyridin-3-yl)-N2-(4-methyltetrahydro-2H-pyran-4-yl)-9H-purine-2,8-diamine] | < 150 | 150 to 350
2 | CC1(Nc2ncc3nc(Nc4cccc(Cl)c4)n(C4CC(N)C4)c3n2)CCOCC1 (stereo not drawn) [A-35, 9-(3-aminocyclobutyl)-N8-(3-chlorophenyl)-N2-(4-methyltetrahydro-2H-pyran-4-yl)-9H-purine-2,8-diamine] | < 150 | < 150
3 | CC(C)(C)Nc1ncc2nc(Nc3ccc(Cl)c(Cl)c3)n(C3CC(N)C3)c2n1 (stereo not drawn) [A-39, 9-(3-aminocyclobutyl)-N2-tert-butyl-N8-(3,4-dichlorophenyl)-9H-purine-2,8-diamine] | 150 to 350 | 350 to 500
4 | CC1(Nc2ncc3nc(Nc4cccc(Cl)c4)n([C@H]4CC[C@@H](CN5CCOCC5)CC4)c3n2)CCOCC1 [A-41, N8-(3-chlorophenyl)-N2-(4-methyltetrahydro-2H-pyran-4-yl)-9-((1s,4s)-4-(morpholinomethyl)cyclohexyl)-9H-purine-2,8-diamine] | 350 to 500 | < 150
5 | CC1(Nc2ncc3nc(Nc4cc(C(F)(F)F)ccc4F)n([C@H]4CC[C@@H](CN)CC4)c3n2)CCOCC1 [A-42, 9-((1s,4s)-4-(aminomethyl)cyclohexyl)-N8-(2-fluoro-5-(trifluoromethyl)phenyl)-N2-(4-methyltetrahydro-2H-pyran-4-yl)-9H-purine-2,8-diamine] | < 150 | < 150
6 | CC1(Nc2ncc3nc(Nc4cccc(C(F)(F)F)n4)n([C@H]4CC[C@@H](CN)CC4)c3n2)CCOCC1 [A-45, 9-((1s,4s)-4-(aminomethyl)cyclohexyl)-N2-(4-methyltetrahydro-2H-pyran-4-yl)-N8-(6-(trifluoromethyl)pyridin-2-yl)-9H-purine-2,8-diamine] | 150 to 350 | 150 to 350
7 | CC(C)(C)Nc1ncc2nc(Nc3cc(Cl)cc(Cl)c3)n([C@H]3CC[C@@H](CN)CC3)c2n1 [A-48, 9-((1s,4s)-4-(aminomethyl)cyclohexyl)-N2-tert-butyl-N8-(3,5-dichlorophenyl)-9H-purine-2,8-diamine] | 350 to 500 | 150 to 350
8 | CC1(Nc2ncc3nc(Nc4cccc(Cl)c4)n([C@H]4CC[C@@H](CN)CC4)c3n2)CC1 [A-51, 9-((1s,4s)-4-(aminomethyl)cyclohexyl)-N8-(3-chlorophenyl)-N2-(1-methylcyclopropyl)-9H-purine-2,8-diamine] | < 150 | < 150
9 | CC(C)(C)Nc1ncc2nc(Nc3cccc(C#N)c3)n(C3CCC(N)CC3)c2n1 (stereo not drawn) [A-52, 3-(9-((1r,4r)-4-aminocyclohexyl)-2-(tert-butylamino)-9H-purin-8-ylamino)benzonitrile] | < 150 | 350 to 500
10 | CC(C)(C)Nc1ncc2nc(Nc3cc(Cl)cc(C(F)(F)F)c3)n(C3CCC(N)CC3)c2n1 (stereo not drawn) [A-53, 9-((1r,4r)-4-aminocyclohexyl)-N2-tert-butyl-N8-(3-chloro-5-(trifluoromethyl)phenyl)-9H-purine-2,8-diamine] | 150 to 350 | 150 to 350
11 | CC(C)(CO)Nc1ncc2nc(Nc3cccc(Cl)c3)n(C3CCC(CN)CC3)c2n1 (stereo not drawn) [A-54, 2-(9-((1s,4s)-4-(aminomethyl)cyclohexyl)-8-(3-chlorophenylamino)-9H-purin-2-ylamino)-2-methylpropan-1-ol] | < 150 | 150 to 350
12 | CC1(Nc2ncc3nc(Nc4cc(Cl)cc(C(F)(F)F)c4)n(C4CCC(CN)CC4)c3n2)CCC1 (stereo not drawn) [A-55, 9-((1s,4s)-4-(aminomethyl)cyclohexyl)-N8-(3-chloro-5-(trifluoromethyl)phenyl)-N2-(1-methylcyclobutyl)-9H-purine-2,8-diamine] | 350 to 500 | 150 to 350
13 | CNC[C@H]1CC[C@@H](n2c(Nc3cccc(C(F)(F)F)c3)nc3cnc(NC4(C)CCOCC4)nc32)CC1 [A-58, 9-((1s,4s)-4-((methylamino)methyl)cyclohexyl)-N2-(4-methyltetrahydro-2H-pyran-4-yl)-N8-(3-(trifluoromethyl)phenyl)-9H-purine-2,8-diamine] | < 150 | < 150
14 | CC1(Nc2ncc3nc(Nc4cc(C(F)(F)F)ccc4F)n(C4CCC(N)CC4)c3n2)CCOCC1 (stereo not drawn) [A-59, 9-(4-aminocyclohexyl)-N8-(2-fluoro-5-(trifluoromethyl)phenyl)-N2-(4-methyltetrahydro-2H-pyran-4-yl)-9H-purine-2,8-diamine] | < 150 | 150 to 350
15 | CN(C)CC1CCC(n2c(Nc3cccc(Cl)c3F)nc3cnc(NC(C)(C)C)nc32)CC1 (stereo not drawn) [A-60, N2-tert-butyl-N8-(3-chloro-2-fluorophenyl)-9-((1s,4s)-4-((dimethylamino)methyl)cyclohexyl)-9H-purine-2,8-diamine] | < 150 | < 150
16 | CC1(Nc2ncc3nc(Nc4cc(C(F)(F)F)ccc4F)n(C4CCC(CN)CC4)c3n2)CCC1 (stereo not drawn) [A-61, 9-((1s,4s)-4-(aminomethyl)cyclohexyl)-N8-(2-fluoro-5-(trifluoromethyl)phenyl)-N2-(1-methylcyclobutyl)-9H-purine-2,8-diamine] | < 150 | 150 to 350
17 | NC[C@H]1CC[C@@H](n2c(Nc3cccc(Cl)c3)nc3cnc(NC4CCOCC4)nc32)CC1 [B-1, 9-((1s,4s)-4-(aminomethyl)cyclohexyl)-N8-(3-chlorophenyl)-N2-(tetrahydro-2H-pyran-4-yl)-9H-purine-2,8-diamine] | 350 to 500 | 150 to 350
18 | NC1CCC(n2c(Nc3cccc(Cl)c3)nc3cnc(NC4CC4)nc32)CC1 (stereo not drawn) [B-2, 9-((1r,4r)-4-aminocyclohexyl)-N8-(3-chlorophenyl)-N2-cyclopropyl-9H-purine-2,8-diamine] | < 150 | 350 to 500
19 | NC1CCC(n2c(Nc3cccc(Cl)c3)nc3cnc(NCC4CC4)nc32)CC1 (stereo not drawn) [B-3, 9-((1r,4r)-4-aminocyclohexyl)-N8-(3-chlorophenyl)-N2-(cyclopropylmethyl)-9H-purine-2,8-diamine] | 350 to 500 | 350 to 500
20 | NC1CCC(n2c(Nc3cccc(Cl)c3)nc3cnc(NCC(F)(F)F)nc32)CC1 (stereo not drawn) [B-4, 9-((1r,4r)-4-aminocyclohexyl)-N8-(3-chlorophenyl)-N2-(2,2,2-trifluoroethyl)-9H-purine-2,8-diamine] | < 150 | 350 to 500
21 | CN(c1ncc2nc(Nc3cccc(Cl)c3)n([C@H]3CC[C@@H](CN)CC3)c2n1)C1CCOCC1 [B-5, 9-((1s,4s)-4-(aminomethyl)cyclohexyl)-N8-(3-chlorophenyl)-N2-methyl-N2-(tetrahydro-2H-pyran-4-yl)-9H-purine-2,8-diamine] | < 150 | 350 to 500
22 | OCC1CCC(n2c(Nc3cccc(Cl)c3)nc3cnc(NC4CCOCC4)nc32)CC1 (stereo not drawn) [B-6, ((1s,4s)-4-(8-(3-chlorophenylamino)-2-(tetrahydro-2H-pyran-4-ylamino)-9H-purin-9-yl)cyclohexyl)methanol] | 350 to 500 | 350 to 500
23 | CN(C)c1ncc2nc(Nc3cccc(Cl)c3)n(C3CCC(CN)CC3)c2n1 (stereo not drawn) [B-7, 9-((1s,4s)-4-(aminomethyl)cyclohexyl)-N8-(3-chlorophenyl)-N2,N2-dimethyl-9H-purine-2,8-diamine] | < 150 | 350 to 500
24 | CC1(C)CC(Nc2ncc3nc(Nc4cccc(Cl)c4)n([C@H]4CC[C@@H](CN)CC4)c3n2)CCO1 (stereo partly drawn) [B-8, 9-((1s,4s)-4-(aminomethyl)cyclohexyl)-N8-(3-chlorophenyl)-N2-(2,2-dimethyltetrahydro-2H-pyran-4-yl)-9H-purine-2,8-diamine] | < 150 | 150 to 350
25 | CNc1ncc2nc(Nc3cccc(Cl)c3)n(C3CCC(CN)CC3)c2n1 (stereo not drawn) [B-9, 9-((1s,4s)-4-(aminomethyl)cyclohexyl)-N8-(3-chlorophenyl)-N2-methyl-9H-purine-2,8-diamine] | < 150 | 350 to 500
26 | NCC1CCC(n2c(Nc3cccc(Cl)c3)nc3cnc(NCC(F)(F)F)nc32)CC1 (stereo not drawn) [B-10, 9-((1s,4s)-4-(aminomethyl)cyclohexyl)-N8-(3-chlorophenyl)-N2-(2,2,2-trifluoroethyl)-9H-purine-2,8-diamine] | < 150 | 350 to 500
27 | CC1(O)CCC(Nc2ncc3nc(Nc4cccc(Cl)c4)n(C4CCC(CN)CC4)c3n2)CC1 (stereo not drawn) [B-11, 4-(9-((1s,4s)-4-(aminomethyl)cyclohexyl)-8-(3-chlorophenylamino)-9H-purin-2-ylamino)-1-methylcyclohexanol] | < 150 | 350 to 500
